Assay results as given in US5780498A, “Endothelin receptor antagonists” (Ciba-Geigy Japan Limited, priority 1993, dated 1998).

Tests used:
guinea pig trachea = biological target: T1, guinea pig trachea (Cavia porcellus, UniProt H0VTF3); assay: Contraction of guinea pig trachea (inhibition of ET-3 induced contraction); settings: ET-3 contraction; Krebs-Henseleit solution; 60 mM KCl reference standard; read-out: pA2 (converted)
T1 construct: The trachea which is isolated from male Hartley guinea pigs; from tissue; host or cells: guinea pig (Hartley) tracheal rings, epithelium removed
T1 sequence (H0VTF3 27-415): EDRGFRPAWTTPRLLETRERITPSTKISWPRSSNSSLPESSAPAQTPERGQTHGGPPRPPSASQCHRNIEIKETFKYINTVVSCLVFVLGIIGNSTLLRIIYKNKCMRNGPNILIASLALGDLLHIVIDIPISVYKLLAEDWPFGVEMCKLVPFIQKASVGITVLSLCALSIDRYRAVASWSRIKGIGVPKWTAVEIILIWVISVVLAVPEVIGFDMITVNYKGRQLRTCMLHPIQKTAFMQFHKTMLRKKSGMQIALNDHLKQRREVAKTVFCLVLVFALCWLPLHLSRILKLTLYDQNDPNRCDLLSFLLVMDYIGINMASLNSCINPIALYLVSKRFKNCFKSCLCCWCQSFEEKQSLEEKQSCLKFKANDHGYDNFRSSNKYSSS
Procedure: Contraction assays are performed basically according to the published method (M. Takai et al. Biochem. Biophys. Res. Commun. 184, 953-959, 1992). The trachea which is isolated from male Hartley guinea pigs weighing 350-500 g, is cut into rings of approximately 2 mm length after removal of the adherent fat and connective tissues. The epithelium is removed mechanically from the rings. The preparations are placed in organ baths containing a Krebs-Henseleit or Tyrode solution at 37° C., pH 7.4 bubbled with 95% O2 and 5% CO2. Tension is measured isometrically via a force-displacement transducer (Nikhon Kohden, Tokyo, TB-612T) under an initial tension of 1 g. Concentration-response curves for ET-3 are obtained by its cumulative application. Inhibitory activities of given compounds are investigated by the addition of their DMSO solutions into the baths 10 to 40 min before the addition of ET-3. These activities are evaluated numerically by pA2 values which are negative logarithms of compound concentrations inducing a shift of the ET-3 concentration-effective curves toward the 2-fold higher concentration range of ET-3. Contraction produced by 60 mM KCl or 10 μM carbachol is used as a reference standard.

ETA receptor = biological target: T2, ETA receptor (Sus scrofa, UniProt Q29010); assay: Endothelin (ET) receptor binding assay, ETA ([125I]ET-1 in the presence of 1 nM nonlabeled ET-3, porcine lung plasma membrane); settings: for inhibition at 10 µM: 10^-5 M of the test compound, specific ETA binding; for Ki: from inhibition curves for the binding of [125I]ETs
T2 construct: The plasma membrane of porcine lung; from tissue; host or cells: porcine lung plasma membrane
T2 sequence (Q29010 21-427): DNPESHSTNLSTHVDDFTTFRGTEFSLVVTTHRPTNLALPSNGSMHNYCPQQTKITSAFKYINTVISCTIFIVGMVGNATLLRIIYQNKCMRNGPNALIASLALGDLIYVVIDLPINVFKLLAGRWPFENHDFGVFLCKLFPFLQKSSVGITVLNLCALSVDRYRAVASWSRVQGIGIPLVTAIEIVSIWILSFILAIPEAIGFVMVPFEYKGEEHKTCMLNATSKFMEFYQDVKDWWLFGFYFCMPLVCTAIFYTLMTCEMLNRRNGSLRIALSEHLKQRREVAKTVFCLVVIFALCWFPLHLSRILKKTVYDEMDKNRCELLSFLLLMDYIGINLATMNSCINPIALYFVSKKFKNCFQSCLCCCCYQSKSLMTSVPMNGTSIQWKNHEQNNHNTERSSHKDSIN
Procedure: (§1) Nonspecific binding is defined as membrane-associated radioactivity in the presence of saturating concentrations of ETs (100 nM). Nonspecific binding is subtracted from the total binding and the difference is defined as specific binding.

ETB receptor = biological target: T3, ETB receptor (Sus scrofa, UniProt P35463); assay: Endothelin (ET) receptor binding assay, ETB ([125I]ET-3 alone, porcine lung plasma membrane); settings: for inhibition at 0.1 µM: 10^-7 M of the test compound, specific ETB binding; for Ki: from inhibition curves for the binding of [125I]ETs
T3 construct: The plasma membrane of porcine lung; from tissue; host or cells: porcine lung plasma membrane
T3 sequence (P35463 27-443): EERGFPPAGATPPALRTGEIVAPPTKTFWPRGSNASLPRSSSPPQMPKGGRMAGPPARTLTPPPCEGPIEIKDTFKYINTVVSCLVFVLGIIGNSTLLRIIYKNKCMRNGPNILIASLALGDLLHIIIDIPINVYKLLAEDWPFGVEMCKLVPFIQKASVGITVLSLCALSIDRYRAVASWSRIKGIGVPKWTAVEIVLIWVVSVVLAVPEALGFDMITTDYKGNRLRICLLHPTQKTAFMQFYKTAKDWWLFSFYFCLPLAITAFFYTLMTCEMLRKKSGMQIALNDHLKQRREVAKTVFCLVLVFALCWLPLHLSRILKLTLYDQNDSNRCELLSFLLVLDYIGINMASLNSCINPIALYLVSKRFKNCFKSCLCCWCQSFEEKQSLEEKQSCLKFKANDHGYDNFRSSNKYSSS
Procedure: as §1

Compound	Kb (guinea pig trachea) [nM]	inhibition at 10 µM (ETA receptor) [%]	inhibition at 0.1 µM (ETB receptor) [%]	Ki (ETA receptor) [nM]	Ki (ETB receptor) [nM]
Cc1cc(C)cc(C(=O)N(C)[C@H](Cc2ccccc2)C(=O)N[C@@H](Cc2c[nH]c3ccccc23)C(=O)O)c1 [Example 1, N-(3,5-Dimethylbenzoyl)-N-methyl-(D)-phenylalanyl-(L)-tryptophan]	501	37	55	–	–
Cc1cc(C)cc(C(=O)N(C)[C@H](Cc2ccc(-c3ccccc3)cc2)C(=O)N[C@@H](Cc2c[nH]c3ccccc23)c2nn[nH]n2)c1 [Example 4, 5-[N-(3,5-dimethylbenzoyl)-N-methyl-(D)-(4-phenylphenyl)alanyl-(L)-tryptophanyl]-1H-tetrazole]	–	74	93	–	–
Cc1cc(C)cc(C(=O)N(C)[C@H](Cc2ccc(-c3ccccc3)cc2)C(=O)NC(Cc2csc3ccccc23)C(=O)O)c1 (some centres unmarked) [Example 7]	–	77	87	–	–
Cc1cc(C)cc(C(=O)N(C)[C@H](Cc2ccc(-c3ccccc3)cc2)C(=O)N(C)[C@@H](Cc2c[nH]c3ccccc23)C(=O)O)c1 [Example 12, N-(3,5-Dimethylbenzoyl)-N-methyl-(D)-(4-phenylphenyl)alanyl-N-methyl-(L)-tryptophan]	–	36	91	–	–
Cc1cc(C)cc(C(=O)N(C)[C@H](Cc2ccc(-c3ccccc3)cc2)C(=O)N[C@@H](Cc2c[nH]c3ccccc23)C(=O)O)c1 [Example 55, N-(3,5-Dimethylbenzoyl)-N-methyl-(D)-(4-phenylphenyl)alanyl-(L)-tryptophan]	–	94	100	440	1
Cc1cc(C)cc(C(=O)N(C)C(C(=O)N[C@@H](Cc2c[nH]c3ccccc23)C(=O)O)C(c2ccccc2)c2ccccc2)c1 (some centres unmarked) [Example 57, N-(3,5-dimethylbenzoyl)-N-methyl-(D,L)-3-(diphenyl)alanyl-(L)-tryptophan]	–	34	95	–	–
COc1ccc(C[C@H](C(=O)N[C@@H](Cc2c[nH]c3ccccc23)C(=O)O)N(C)C(=O)c2cc(C)cc(C)c2)cc1 [Example 65, N-(3,5-dimethylbenzoyl)-N-methyl-O-methyl-(D)-tyrosyl-(L)-tryptophan]	–	47	59	–	–
Cc1cc(C)cc(C(=O)N(C)[C@H](Cc2ccc(-c3ccccc3)cc2)C(=O)CC(Cc2c[nH]c3ccccc23)C(=O)O)c1 (some centres unmarked) [Example 84]	–	46	70	–	–
Cc1cc(C)cc(C(=O)N(C)[C@H](Cc2ccc(-c3ccsc3)cc2)C(=O)N[C@@H](Cc2c[nH]c3ccccc23)C(=O)O)c1 [Example 91, N-(3,5-dimethylbenzoyl)-N-methyl-(D)-3-[4-(3-thienyl)phenyl]alanyl-(L)-tryptophan]	–	100	100	54	0.23
Cc1cc(C)cc(C(=O)N(C)[C@H](Cc2ccc(-c3cccs3)cc2)C(=O)N[C@@H](Cc2c[nH]c3ccccc23)C(=O)O)c1 [Example 93, N-(3,5-dimethylbenzoyl)-N-methyl-(D)-3-[4-(2-thienyl)phenyl]alanyl-(L)-tryptophan]	–	–	–	87	0.6
Cc1cc(C)cc(C(=O)N(C)[C@H](Cc2ccc(-c3ccno3)cc2)C(=O)N[C@@H](Cc2c[nH]c3ccccc23)C(=O)O)c1 [Example 95, N-(3,5-dimethylbenzoyl)-N-methyl-(D)-3-[4-(5-isoxazolyl)phenyl]alanyl-(L)-tryptophan]	–	98	98	45	0.21
